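Dose response: 5 concentrations. Exposure: 48 h. Format: 96-well plates. Endpoint: linear interpolation; highest concentration if not reached. TGI marks complete inhibition of growth.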
Columns and labels:
Test in all cases: DTP human tumour cell line panel, 48 h
HL-60(TB) leukemia = test system: HL-60(TB) leukemia
K-562 leukemia = test system: K-562 leukemia
OVCAR-3 ovarian = test system: OVCAR-3 ovarian
TK-10 renal = test system: TK-10 renal
T-47D breast = test system: T-47D breast
IGROV1 ovarian = test system: IGROV1 ovarian
PC-3 prostate = test system: PC-3 prostate
SN12C renal = test system: SN12C renal
MDA-N = test system: MDA-N
HT29 colon = test system: HT29 colon
CAKI-1 renal = test system: CAKI-1 renal
SK-MEL-5 melanoma = test system: SK-MEL-5 melanoma
U251 CNS = test system: U251 CNS
CCRF-CEM leukemia = test system: CCRF-CEM leukemia
SK-MEL-2 melanoma = test system: SK-MEL-2 melanoma
SNB-75 CNS = test system: SNB-75 CNS
MCF7 breast = test system: MCF7 breast
SF-295 CNS = test system: SF-295 CNS
MOLT-4 leukemia = test system: MOLT-4 leukemia
UACC-257 melanoma = test system: UACC-257 melanoma

Row | SMILES | TGI (HL-60(TB) leukemia) | TGI (K-562 leukemia) | TGI (OVCAR-3 ovarian) | TGI (TK-10 renal) | TGI (T-47D breast) | TGI (IGROV1 ovarian) | TGI (PC-3 prostate) | TGI (SN12C renal) | TGI (MDA-N) | TGI (HT29 colon) | TGI (CAKI-1 renal) | TGI (SK-MEL-5 melanoma) | TGI (U251 CNS) | TGI (CCRF-CEM leukemia) | TGI (SK-MEL-2 melanoma) | TGI (SNB-75 CNS) | TGI (MCF7 breast) | TGI (SF-295 CNS) | TGI (MOLT-4 leukemia) | TGI (UACC-257 melanoma)
1 | CCOC(=O)c1nc2cc(F)c(N3CCOCC3)cc2[nH]c1=O | > 100 µM | > 100 µM | > 100 µM | > 100 µM | > 100 µM | > 100 µM | > 100 µM | > 100 µM | > 100 µM | > 100 µM | > 100 µM | > 100 µM | > 100 µM | > 100 µM | > 100 µM | > 100 µM | > 100 µM | > 100 µM | > 100 µM | > 100 µM
2 | CC(=O)OCC1OC(OC2CC3C(C)(C)C(O)CC[C@]3(C)C3CCC45CC4(CCC5[C@@H](C)CC(O)C(O)C(C)(C)O)[C@]23C)C(O)C(O)C1O (some centres not stated) | > 10 µM | > 10 µM | > 10 µM | > 10 µM | > 10 µM | > 10 µM | > 10 µM | > 10 µM | > 10 µM | > 10 µM | > 10 µM | > 10 µM | > 10 µM | > 10 µM | > 10 µM | > 10 µM | > 10 µM | > 10 µM | > 10 µM | > 10 µM
3 | CC1(C)OC2C(O)C(CO)OC2(C(F)F)O1 (configuration not stated) | > 100 µM | > 100 µM | > 100 µM | > 100 µM | > 100 µM | > 100 µM | > 100 µM | > 100 µM | > 100 µM | > 100 µM | > 100 µM | > 100 µM | > 100 µM | > 100 µM | > 100 µM | > 100 µM | > 100 µM | > 100 µM | > 100 µM | > 100 µM
4 | NCC(=O)Nc1ccc(S(=O)(=O)O)c2cc(S(=O)(=O)O)cc(S(=O)(=O)O)c12 | > 100 µM | > 100 µM | > 100 µM | > 100 µM | > 100 µM | > 100 µM | > 100 µM | > 100 µM | > 100 µM | > 100 µM | > 100 µM | > 100 µM | > 100 µM | > 100 µM | > 100 µM | > 100 µM | > 100 µM | > 100 µM | > 100 µM | > 100 µM
5 | CC1OC(OC2C(OC(=O)[C@]34CCC(C)(C)C[C@H]3C3=CC[C@@H]5[C@@]6(C)CC[C@H](OC7OC(CO)C(O)C(O)C7OC7OC(CO)C(O)C(O)C7O)C(C)(C)[C@@H]6CC[C@@]5(C)[C@]3(C)CC4)OCC(O)C2O)C(O)C(OC2OCC(O)C(O)C2O)C1OC1OCC(O)C(OC2OCC(O)C(O)C2O)C1O (some centres not stated) | 10.8 µM | 23.2 µM | > 100 µM | 29.8 µM | 51.8 µM | > 67.4 µM | 25.9 µM | 5.56 µM | 5.77 µM | 14.2 µM | 21.8 µM | 23.3 µM | > 56.8 µM | > 100 µM | 24.1 µM | 40.8 µM | 58.3 µM | 21.4 µM | 48.6 µM | 13.9 µM
6 | COc1ccc(N=NC(=O)NC(CC(C)C)C(=O)NC(C)C(=O)O)cc1 (configuration not stated) | > 100 µM | > 38.4 µM | > 100 µM | > 100 µM | > 45.3 µM | > 100 µM | > 100 µM | > 100 µM | > 100 µM | > 100 µM | > 100 µM | > 100 µM | > 100 µM | > 100 µM | > 100 µM | > 100 µM | > 100 µM | > 100 µM | > 100 µM | > 100 µM
7 | COC(=O)/C=C\C(C#N)(C#N)N=Cc1cc(Br)cs1 | 0.12 µM | > 100 µM | 17.4 µM | 8.45 µM | 5.07 µM | 14.1 µM | 16 µM | 7.64 µM | 6.62 µM | 4.86 µM | 7.53 µM | 18.3 µM | 29.3 µM | 2.38 µM | 25.5 µM | 29.7 µM | 4.49 µM | 31.8 µM | > 100 µM | 7.74 µM
8 | CC1C=CN(N(C)C)C2=C1C(=O)c1cnccc1C2=O (configuration not stated) | 4.66 µM | – | 2.37 µM | 1.44 µM | 4.33 µM | 1.07 µM | 7.89 µM | 0.558 µM | 0.278 µM | 2.27 µM | 0.597 µM | 0.894 µM | 2.49 µM | 5.01 µM | 4.02 µM | 0.868 µM | 0.986 µM | 2.18 µM | 4.06 µM | 0.75 µM
9 | CCC(=O)O[C@H]1CC[C@H]2[C@@H]3CCC4=C/C(=N/OC(=O)c5cccc6cc7ccccc7nc56)CC[C@]4(C)[C@H]3CC[C@]12C | > 100 µM | > 100 µM | > 100 µM | – | 67.6 µM | > 100 µM | > 100 µM | > 100 µM | > 100 µM | > 100 µM | > 100 µM | 31.5 µM | > 100 µM | > 100 µM | > 100 µM | > 100 µM | > 100 µM | – | > 100 µM | > 100 µM

Source: PubChem BioAssay (NCI)
